This test has as its system heme oxygenase-1 (HO-1). The experiment in a line: HO-1 promoter luciferase reporter screen (pHOGL3/4.5+220 stable HEK293 cells). Conditions: Table 1; for EC50: evaluation of thioquinolinones, HEK293 HO-1 reporter; for Emax: HEK293, Emax as % of 5 μM hemin. The test is classed as cell-based, human. On the procedure:
The generation of the pHOGL3/4.5+220 construct is described in Deshane, et al. (2010) “SpI regulates chromatin looping between an intronic enhancer and distal promoter of the human heme oxygenase-1 gene in renal cells” J Biol Chem 285(22): 16476-86. See also FIG. 1.
Briefly, BamHI sites were added to the 4.5-kb PCR product generated by long-range PCR from a bacterial artificial chromosome clone containing portions of chromosome 22 (accession no. Z82244), including the HO-1 gene. This fragment was cloned into the Bg/II restriction site of the multiple cloning region to make the parental clone (pHOGL3/4.5). The 220-bp intronic enhancer was amplified with SalI sites on either end and cloned into the SalI site of the vector to generate pHOGL3/4.5+220.
In order to generate cells that stably express luciferase expression vectors that lack a mammalian antibiotic selection cassette, HEK293 cells were co-transfected with either pHOGL3/4.5+220 (Deshane et al, 2010) or the Triple Mutant construct (Liby, Hock et al, 2005; Hock et al, 2007) and pcDNA3.1 Zeocin using Lipofectamine 2000. Cells were cultured in Zeocin (400 ug/ml; Invitrogen) for selection. Individual clones were sorted by flow cytometry and plated into a 96-well plate at a density of one cell per well. Clones were maintained and expanded in complete media (DMEM/10% FBS/1× antibiotic-antimycotic) supplemented with 100 ug/ml Zeocin, and incubated at 37° C. in 5% carbon dioxide. Incorporation of the Luciferase expression vectors was validated by assaying for luciferase. […]
Background: A reporter such as luciferase makes a cellular process visible.

Like-named read-outs stand apart in the source and are kept apart here.

The text below walks through data of patent US11945781B2, “Compounds for the treatment of acute and chronic kidney disease” (Southern Research Institute, priority 2020, dated 2024).

As usually defined, the EC50 is the midpoint of the concentration-response curve. `Oc1c(F)cc(CCSc2cccc3cccnc23)cc1F` [Compound 12]: the EC50 entry is recorded as “Inactive”. Still for that read-out and setting: the same measure for `O=C(Nc1cccc2cccnc12)c1cc(F)c(O)c(F)c1` [Compound 22]: “Inactive”. Broadly, the Emax is the greatest response seen or fitted, relative to the assay's reference. `Oc1ccc(CSc2cccc3cccnc23)cc1` [Compound 2]: the Emax (Homo sapiens) is 127%. Further, where the note is “Homo sapiens, read-out: EC50”, the EC50 was 340 nM.

As to `Oc1ccc(CSc2cccc3cccnc23)cc1` [Compound 14], the EC50 result was “Inactive”. Molecule `Oc1c(F)cc(F)cc1CSc1cccc2cccnc12` [Compound 7] displayed an Emax (Homo sapiens) of 55.2%. Also, for the setting “Homo sapiens, read-out: EC50”, the EC50 is 5250 nM.

As to `Oc1c(F)cc(CSc2ccnc3ccccc23)cc1F` [Compound 15], the EC50 result is reported as “Inactive”. The molecule `COc1c(F)cc(CCSc2cccc3cccnc23)cc1F` [Compound 20] showed an Emax (Homo sapiens) of 69.9%. Moreover, under “Homo sapiens, read-out: EC50”, the EC50 is 20000 nM. With `O=S(=O)(Cc1cc(F)c(O)c(F)c1)c1cccc2cccnc12` [Compound 10], the EC50 entry was “Inactive”. Take `Oc1ccc(COc2cccc3cccnc23)cc1` [Compound 11]: the EC50 entry was “Inactive”. The same measure, in the same setting: the same measure for `Oc1c(F)cc(CSc2ccncc2)cc1F` [Compound 17]: “Inactive”; for `COc1c(F)cc(CSc2cccc3cccnc23)cc1F` [Compound 19, 8-((3,5-difluoro-4-methoxybenzyl)thio)quinolone]: “Inactive”. For `Oc1c(F)cc(CSc2cccc3ccccc23)cc1F` [Compound 18], the EC50 result is “Inactive”. `Oc1c(F)cc(CSc2nccc3ccccc23)cc1F` [Compound 16]: the EC50 result is reported as “Inactive”. As for `[O-][S+](Cc1cc(F)c(O)c(F)c1)c1cccc2cccnc12` (stereo not drawn) [Compound 9], the Emax (Homo sapiens) was found to be 106%. Further, the EC50 (Homo sapiens, read-out: EC50) came to 340 nM.

For the molecule `Oc1ccc(CCSc2cccc3cccnc23)cc1` [Compound 13], the Emax (Homo sapiens) stood at 122%. The EC50 (Homo sapiens, read-out: EC50) is 19000 nM.

Molecule `Oc1c(F)cc(CSc2cccc3cccnc23)cc1Cl` [Compound 5] gave a maximal response (Emax) (Homo sapiens) of 113%. Besides, the EC50 (Homo sapiens, read-out: EC50) stood at 420 nM. For the molecule `Oc1c(F)cc(CSc2cccc3cccnc23)cc1F` [Compound 1, 2,6-difluoro-4-((quinolin-8-ylthio)methyl)phenol], the Emax (Homo sapiens) turned out to be 154%. The EC50 (Homo sapiens, read-out: EC50) was 430 nM. Turning to `O=C(Nc1cc(F)c(O)c(F)c1)c1cccc2cccnc12` [Compound 23], the EC50 result is “Inactive”. Regarding `Oc1ccc(CSc2cccc3cccnc23)cc1F` [Compound 3], the Emax (Homo sapiens) turned out to be 83.7%. In addition, where the note is “Homo sapiens, read-out: EC50”, the EC50 was 200 nM.

For `Oc1c(F)c(F)c(CSc2cccc3cccnc23)c(F)c1F` [Compound 6], the maximum response (Emax) (Homo sapiens) is 113%. In addition, the half-maximal effective concentration (EC50) (Homo sapiens, read-out: EC50) is 1050 nM. Under “Homo sapiens”, `Oc1ccc(CSc2cccc3cccnc23)cc1Cl` [Compound 4] registered an Emax of 106%. Where the note is “Homo sapiens, read-out: EC50”, the EC50 came to 340 nM. With `O=S(=O)(Nc1cc(F)c(O)c(F)c1)c1cccc2cccnc12` [Compound 21], the concentration giving a half-maximal response (EC50) result is recorded as “Inactive”. As to `Fc1cc(F)cc(CSc2cccc3cccnc23)c1` [Compound 8], the EC50 entry is “Inactive”.
